# Laboratory results reported in patent publication US11419902B2, “Compositions comprising bacterial strains” (4D Pharma Research Limited, priority 2018, dated 2022).
# How the values were obtained:
# [1] = test system: ERK signalling (phosphorylated ERK1 and 2/total ERK); test: ERK signalling in SKMEL31 cell line (Western blot); type: cell-based; conditions: SKMEL31, relative to the negative control (YFCA+)
# Method: Following 24 h treatment with the appropriate drugs either in presence of 10% bacterial supernatant or absence (YCFA+), protein extracts were obtained by lysing cells in RIPA buffer (R0278; Sigma Aldrich) supplemented with protease inhibitors (cOmplete Protease Inhibitor Cocktail Tablets; Roche, Switzerland) and 1 mM/L sodium orthovanadate, 0.5 mM/L PMSF. Protein quantification was done by the BCA protein assay. Equal amounts of total protein (20 μg/lane) were then separated by SDS-PAGE on 4-15% gradient gel (BioRad) and transferred to polyvinylidene difluoride (PVDF) membranes (Thermo Fisher Scientific, Loughborough). […]
# Proteins of interest were detected with the appropriate HRP-conjugated secondary antibody (1:10,000, Thermo Fisher Scientific, Loughborough), developed with the ECL Western blotting Super Signal PicoPlus substrate (34577; Thermo Fisher Scientific, Loughborough), and visualised in Chemidoc XRS Imager (BioRad).
# The effects of the following treatments were assessed on the SKMEL31 melanoma cell line (heterozygous for BRAF V600E): (1) MRx0029; (2) Vemurafenib (VEMU) in YFCA+ medium; (3) VEMU and MRx0029; (4) Azacytidine-C (Aza-c) in YFCA+ medium; (5) Aza-c and MRx0029; (6) VEMU, Aza-c and MRx0029.
# TLR-4, CD11b = test: Gene expression of inflammatory markers in brain tissue (qPCR); type: in vivo, BALBc mice; conditions: oral gavage 1×10^9 CFU for 6 consecutive days
# Method: BALBc (Envigo, UK) adult male mice were group housed under a 12 h light-dark cycle; standard rodent chow and water were available ad libitum. All experiments were performed in accordance with European guidelines following approval by University College Cork Animal Ethics Experimentation Committee. Animals were 8 weeks old at the start of the experiment.
# Animals were allowed to habituate to their holding room for one week after arrival into the animal unit. They receive oral gavage (200 μL dose) of live biotherapeutics at a dose of 1×10^9 CFU for 6 consecutive days between 15:00 and 17:00. On day 7, the animals are decapitated, and tissues are harvested for experimentation. […]
# Total RNA was extracted using the mirVana™ miRNA Isolation kit (Ambion/Llife technologies, Paisley, UK) and DNase treated (Turbo DNA-free, Ambion/life technologies) according to the manufacturers recommendations. RNA was quantified using NanoDrop™ spectrophotometer (Thermo Fisher Scientific Inc., Wilmington, Del., USA) according to the manufacturer's instructions. RNA quality was assessed using the Agilent Bioanalyzer (Agilent, Stockport, UK) according to the manufacturer's procedure and an RNA integrity number (RIN) was calculated. […] Quantitative PCR was carried out using probes (6 carboxy fluorescein—FAM) designed by Applied Biosystems to mouse specific targeted genes, while using β-actin as an endogenous control. […]
# IL-8 = IL-8 secretion in MG U373 cells (ELISA); type: cell-based, human; conditions: 10% bacteria supernatant 24 h, independently of the presence of LPS (1 ug/mL)
# Method: MG U373 is a human glioblastoma astrocytoma derived from a malignant tumour and were purchased from Sigma-Aldrich (cat n. 08061901-1VL). MG U373 human glioblastoma astrocytoma cells were grown in MEM (Sigma Aldrich, cat n. M-2279) supplemented with 10% FBS, 1% Pen Strep, 4 mM L-Glut, 1×MEM Non-essential Amino Acid solution and 1× Sodium Piruvate.
# Once grown the MG U373 cells were plated on 24-well plate at 100,000 cells/well. The cells were treated with LPS (1 ug/mL) alone or with 10% of bacteria supernatant from MRx0029 for 24 h. LPS is a known stimulator of proinflammatory cytokines such as IL-8. Afterwards the cell free supernatants were collected, centrifuged at 10,000 g for 3 min at 4° C. IL-8 was measured using Human IL-8 ELISA Kit from Peprotech (cat n. #900-K18) according to manufacturer instruction.
# IL-6, CD11b, TLR4 = test: Gene expression in the brain of BALB/c mice (qPCR); type: in vivo; conditions: vs vehicle control
# Method: BALB/c mice were administered live biotherapeutic and tissues were isolated for analysis of gene expression using qPCR.
substance,measurement,setting,value
Megasphaera massiliensis MRx0029,ERK signalling,[1],reduced ERK signalling
same,expression of CD11b in the amygdala,"TLR-4, CD11b",increased expression of CD11b
same,expression of TLR-4 in the amygdala,"TLR-4, CD11b",significantly increased the expression of TLR-4
same,IL-8 secretion,IL-8,Increases IL-8 Secretion
same,TLR4 expression in the amygdala,"IL-6, CD11b, TLR4",significantly increase TLR4 expression
